Earlier results in patent publication US10968292B2, “Synthetic polymer film whose surface has microbicidal activity, photocurable resin composition, manufacturing method of synthetic polymer film, and sterilization method with use of surface of synthetic polymer film” (SHARP KABUSHIKI KAISHA, priority 2017, dated 2021).

Conditions: for Water Solubility: monomers, YES/NO; for Water Solubility (solubility index): organic acids, water at about 20° C. to about 25° C.

Compound | Water Solubility | Water Solubility (solubility index)
polyethylene glycol (200) diacrylate [Example M282] | YES | 
O=P(O)(O)Oc1ccccc1 [PPA, phenylphosphate] |  | 1 (Very soluble • Less than 1 mL)
polyethylene glycol (400) diacrylate [Example M280] | YES | 
Cc1cc(C)c(C(=O)O)c(C)c1 [TMBA, 2,4,6-trimethylbenzoic acid] |  | 6 (Very slightly soluble • Equal to or greater than 1000 mL and less than 10000 mL)
O=C(O)CCCCCCCCCCC(=O)O [Dodecanedioic Acid, dodecanedioic acid] |  | 7 (Practically insoluble • Not less than 10000 mL)
O=C(O)CCCCCCC(=O)O [Suberic Acid, octanedioic acid] |  | 5 (Slightly soluble • Equal to or greater than 100 mL and less than 1000 mL)
